One data set deals with THP-1. The data set is described as follows: Antiproliferative activity against human THP-1 cells assessed as cell growth inhibition incubated for 96 hrs by MTT assay. Format: functional, cell-based. The following applies: THP-1, 96 h. (Tetrazolium assays rely on reduction of a dye to a coloured formazan, in cell work by metabolically active cells.)
Data set [1] is described as follows: Tmax in Sprague-Dawley rat at 15 mg/kg, po measured after 48 hrs by LC-MS analysis. The following applies: in vivo. The class given is ADME, organism-based.
Data set [2] can be described thus: Acute toxicity in BALB/c mouse assessed change in behavior at 400 mg/kg, po. The class given is organism-based. The following applies: in vivo.
The test system of a further data set is SUD4. The data set is described as follows: Antiproliferative activity against human SU-DHL-4 cells assessed as cell growth inhibition incubated for 96 hrs by MTT assay. The class given is functional, cell-based. As to conditions: SU-DHL-4, 96 h.
Data set [3] relates to Mus musculus. The data set is described as follows: Toxicity in NOD-SCID mouse xenografted with human Raji cells assessed as mortality at 40 mg/kg, po administered for 25 days. Format: organism-based. As to conditions: in vivo, 600 h, time 25 day. In general terms: In xenograft studies the graft and the host belong to different species.
Data set [4] concerns Raji. The data set is described as follows: Antiproliferative activity against human Raji cells assessed as cell growth inhibition at 0.2 uM incubated for 96 hrs by MTT assay. Details: scale not given: the % may be the effect or the level left. The class given is functional.
Data set [5] can be described thus: Microsomal stability in mouse liver microsomes assessed as half life at 1 uM measured upto 120 mins in presence of NADPH by LC-MS analysis. Format: ADME, Microsome.
Data set [6] has as its system Mus musculus. Description: Toxicity in NOD-SCID mouse xenografted with human Raji cells assessed as change in ALT level at 40 mg/kg, po administered for 25 days. The class given is organism-based. As to conditions: in vivo, 600 h, time 25 day.
Data set [7] relates to Raji. The data set is described as follows: Induction of cell cycle arrest in human Raji cells assessed as accumulation of cells at S phase at 0.5 uM after 24 hrs by propidium iodide staining based flow cytometric analysis (reference value: 45.7%). The class given is functional. For orientation: In flow cytometry, cells or beads pass a laser one at a time.
A short description of data set [8]: Acute toxicity in BALB/c mouse assessed as effect on liver at 400 mg/kg, po measured on day 14 by H and E staining based assay. The following applies: in vivo, 336 h, time 14 day. Format: organism-based.
A short description of data set [9]: Half life in Sprague-Dawley rat at 15 mg/kg, po measured after 48 hrs by LC-MS analysis. The class given is ADME, organism-based. As to conditions: in vivo.
The next data set relates to SU-DHL-6. Description: Antiproliferative activity against human SU-DHL-6 cells assessed as cell growth inhibition incubated for 96 hrs by MTT assay. The class given is functional, cell-based. The following applies: SU-DHL-6, 96 h.
The nature of data set [10]: Plasma protein binding in rat at 0.1 uM incubated for 5 hrs by LC-MS analysis. The class given is ADME, cell-free. The following applies: read-out: PPB (converted).

As usually defined, the IC50 is the concentration that inhibits the measured activity by half. What is called Tmax is the time at which the peak concentration occurs. As usually defined, the half-life is the time needed for the level to fall by half in the phase considered. As for `C/C(O)=C(\C#N)C(=O)Nc1cc(O[C@@H](C)C(F)(F)F)c(C(=O)Nc2c(F)cccc2F)cc1F`, the 50% inhibitory concentration (IC50) in the data set on THP-1, in the data set on SUD4 and in the data set on SU-DHL-6 was 20 nM in each case. The time of peak concentration (Tmax) in data set [1] was 18 h. Moreover, the Activity result is “Non-Toxic” in [2]; “Non-Toxic” in the data set with Mus musculus [3]; 58.7% with Raji [4]; “Non-Toxic” in the data set on Mus musculus [6]; 86.9% with Raji [7]; “Non-Toxic” in data set [8]. The half-life at 1 µM in [5] was 495 min. In [9], this compound showed a half-life of 606 min. For the same compound, the fraction unbound at 5 h, 0.1 µM in [10] is 0.099.

These data come from ChEMBL document CHEMBL5053556, “Design, Synthesis, and Biological Evaluation of a Novel Series of Teriflunomide Derivatives as Potent Human Dihydroorotate Dehydrogenase Inhibitors for Malignancy Treatment” (J Med Chem, 2021).
